“Also recorded” adds a separate entry of the source.

One experiment relates to ENR+CD organoids. The experiment in a line: Primary screen: ATP (CellTiter-Glo 3D, CTG) cell number/viability, 2.5-D 384-well ENR+CD organoids.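 For all read-outs here: compounds given at plating and again on day 3 over a 6-day differentiation from ENR+CV stem-cell-enriched precursors, ATP measured on day 6, plate median as control.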 The following applies: primary screen; for Z.CTG: standard z score. (Cellular ATP, detected with luciferase, serves as a proxy for viable cell number.)
Experiment [1] concerns ENR+CD organoids (ISC to Paneth cell differentiation). Kind of experiment: Primary screen: basal (non-stimulated) lysozyme secretion LYZ.NS, 2.5-D 384-well ENR+CD organoid differentiation. It is filed as cell-based, mouse. As to conditions: for Z.LYZ.NS / Dose.FC.LYZ.NS / Z.LYZ.NS (standard z score) / Dose.FC.LYZ.NS (log2 fold change): primary screen; for Z.LYZ.NS: standard z score; for Dose.FC.LYZ.NS: FC vs plate median. From the text: (§1) High-throughput screening.

The test system is the same in experiment [2]. Kind of experiment: Primary screen: CCh-stimulated lysozyme secretion LYZ.S, 2.5-D 384-well ENR+CD organoid differentiation. It is filed as cell-based, mouse. As to conditions: for Dose.FC.LYZ.S: primary screen.
Source text: as §1

[3] abbreviates: dose 0.08 uM, FC vs plate median.
Setting [4] is: dose 0.40 uM, FC vs plate median.
[5] abbreviates: dose 2.00 uM, FC vs plate median.
Setting [6] is: dose 10.00 uM, FC vs plate median.

For `O=[N+]([O-])C=Cc1ccc2c(c1)OCO2`, the Z.CTG with ENR+CD organoids (dose 0.08 uM) is given as −0.037; in the experiment with ENR+CD organoids (dose 0.40 uM), 0.146; in the experiment on ENR+CD organoids (dose 2.00 uM), 0.148; in the experiment on ENR+CD organoids (dose 10.00 uM), −0.469. Besides, the Dose.FC.CTG is −0.016 log2 fold change in the experiment on ENR+CD organoids (setting [3]), 0.061 log2 fold change in the experiment on ENR+CD organoids (setting [4]), 0.062 log2 fold change in the experiment on ENR+CD organoids (setting [5]) and −0.197 log2 fold change in the experiment on ENR+CD organoids (setting [6]). In addition, the Z.LYZ.NS was 0.499 in experiment [1] (dose 0.08 uM), −0.088 in experiment [1] (dose 0.40 uM), 0.347 in experiment [1] (dose 2.00 uM) and −1.307 in experiment [1] (dose 10.00 uM). Besides, the Dose.FC.LYZ.NS in experiment [1] (dose 0.08 uM) is 0.057 log2 fold change; in experiment [1] (dose 0.40 uM), −0.010 log2 fold change; in experiment [1] (dose 2.00 uM), 0.040 log2 fold change; in experiment [1] (dose 10.00 uM) it was −0.150 log2 fold change. For the same molecule, the Dose.FC.LYZ.S in experiment [2] (setting [3]) was 0.076 log2 fold change; in experiment [2] (setting [4]), 0.100 log2 fold change; in experiment [2] (setting [5]), 0.019 log2 fold change; in experiment [2] (setting [6]) it was −0.179 log2 fold change.
On to `COc1cc(CCc2cc(NC(=O)c3ccc(N4CC(C)NC(C)C4)cc3)n[nH]2)cc(OC)c1` (centres unmarked) [AZD4547], for which the Dose.FC.CTG with ENR+CD organoids (dose 0.08 uM) is listed as 0.160 log2 fold change; with ENR+CD organoids (dose 0.40 uM), 0.101 log2 fold change; with ENR+CD organoids (dose 2.00 uM), −0.010 log2 fold change; in the experiment on ENR+CD organoids (dose 10.00 uM), −0.062 log2 fold change. Further, the “Z.CTG (standard z score)” value is listed as 0.382 with ENR+CD organoids (dose 0.08 uM), 0.241 with ENR+CD organoids (dose 0.40 uM), −0.024 in the experiment on ENR+CD organoids (dose 2.00 uM) and −0.147 with ENR+CD organoids (dose 10.00 uM). Besides, the Dose.FC.LYZ.S in experiment [2] (dose 0.08 uM) is on record as 0.157 log2 fold change; in experiment [2] (dose 0.40 uM), 0.083 log2 fold change; in experiment [2] (dose 2.00 uM), 0.074 log2 fold change; in experiment [2] (dose 10.00 uM), −0.049 log2 fold change.
With `CC(C)C[C@H](NC(=O)[C@H](Cc1ccccc1)NC(=O)c1cnccn1)B(O)O` [Bortezomib (PS-341)], the Dose.FC.CTG in the experiment with ENR+CD organoids (dose 0.08 uM) was −1.904 log2 fold change; in the experiment with ENR+CD organoids (dose 0.40 uM) it was −2.146 log2 fold change; with ENR+CD organoids (dose 2.00 uM), −0.915 log2 fold change; in the experiment with ENR+CD organoids (dose 10.00 uM), −1.359 log2 fold change. In addition, the “Z.CTG (standard z score)” value with ENR+CD organoids (dose 0.08 uM) is recorded as −4.547; with ENR+CD organoids (dose 0.40 uM), −5.127; in the experiment on ENR+CD organoids (dose 2.00 uM), −2.185; in the experiment on ENR+CD organoids (dose 10.00 uM), −3.246. The Dose.FC.LYZ.S was −0.239 log2 fold change in experiment [2] (dose 0.08 uM), −0.173 log2 fold change in experiment [2] (dose 0.40 uM), −0.249 log2 fold change in experiment [2] (dose 2.00 uM) and −0.238 log2 fold change in experiment [2] (dose 10.00 uM).
With `C[N+](C)(C)CCOC(N)=O.[Cl-]` [CCh, carbamoylcholine chloride, reference compound], the “secreted LYZ in LYZ.NS assay, CCh-stimulated vs non-stimulated ENR+CD controls” value in experiment [1] (10 uM CCh, adj. p<0.0001) is “significantly greater”. The “secreted LYZ in LYZ.S assay, controls subsequently stimulated with CCh vs non-stimulated” value in experiment [2] (10 uM CCh, adj. p<0.05) is given as “showed significant differences; also recorded: significant increase in secreted LYZ”.
For `CC1=C(/C=C/C(C)=C/C=C/C(C)=C\C(=O)O)C(C)(C)CCC1` [Isotretinoin], the figures for the “Z.LYZ.NS (standard z score)” value in experiment [1] (dose 0.40 uM), in experiment [1] (dose 2.00 uM) and in experiment [1] (dose 10.00 uM) were 0.407, 0.578 and 0.718, respectively.
For the molecule `O=c1cc(-c2cccc3c2Sc2ccccc2S3)oc(N2CCOCC2)c1` [KU-55933 (ATM Kinase Inhibitor)], the “Z.CTG (standard z score)” value in the experiment on ENR+CD organoids (dose 0.08 uM) was 1.251; with ENR+CD organoids (dose 0.40 uM) it was 1.140; in the experiment with ENR+CD organoids (dose 2.00 uM), 1.317; in the experiment on ENR+CD organoids (dose 10.00 uM) it was 1.293.
For the molecule `CNC(=O)c1cc(Oc2ccc(NC(=O)Nc3cc(C(C)(C)C)nn3-c3ccc4ncccc4c3)c(F)c2)ccn1` [Rebastinib, reference compound], the “primary screen hit call (SSMD and z-scored FC cutoffs in both LYZ assays)” value in experiment [1] (LYZ.NS and LYZ.S, 0.08-10 uM, 6 days ENR+CD) is listed as “excluded from the hit list due to underperformance on all three assays compared to Bosutinib”.
For the molecule `C=CC(=O)Nc1cccc(Oc2nc(Nc3ccc(N4CCN(C)CC4)cc3OC)ncc2Cl)c1` [WZ4002], the Dose.FC.CTG in the experiment on ENR+CD organoids (dose 0.08 uM) is given as 0.313 log2 fold change; in the experiment with ENR+CD organoids (dose 0.40 uM), 0.082 log2 fold change; in the experiment on ENR+CD organoids (dose 2.00 uM), 0.151 log2 fold change; with ENR+CD organoids (dose 10.00 uM), −0.941 log2 fold change. The “Z.CTG (standard z score)” value is listed as 0.748 in the experiment with ENR+CD organoids (dose 0.08 uM), 0.196 with ENR+CD organoids (dose 0.40 uM), 0.360 in the experiment with ENR+CD organoids (dose 2.00 uM) and −2.248 in the experiment with ENR+CD organoids (dose 10.00 uM). Moreover, the Dose.FC.LYZ.S is 0.114 log2 fold change in experiment [2] (dose 0.08 uM), 0.046 log2 fold change in experiment [2] (dose 0.40 uM), −0.109 log2 fold change in experiment [2] (dose 2.00 uM) and −0.319 log2 fold change in experiment [2] (dose 10.00 uM).
Turning to KX2-391, the “Z.CTG (standard z score)” value in the experiment on ENR+CD organoids (dose 0.08 uM) was −1.796; in the experiment with ENR+CD organoids (dose 0.40 uM), −2.989; in the experiment on ENR+CD organoids (dose 2.00 uM), −4.737; with ENR+CD organoids (dose 10.00 uM), −3.377. Moreover, the “Dose.FC.LYZ.NS (log2 fold change)” value in experiment [1] (dose 0.08 uM) is reported as −0.283; in experiment [1] (dose 2.00 uM) it was −0.251; in experiment [1] (dose 10.00 uM), −0.286. Moreover, the “Z.LYZ.NS (standard z score)” value is recorded as −2.468 in experiment [1] (dose 0.08 uM), −2.546 in experiment [1] (dose 0.40 uM), −2.188 in experiment [1] (dose 2.00 uM) and −2.494 in experiment [1] (dose 10.00 uM).

For the origin of these results see patent US20220323406A1, “METHODS AND COMPOSITIONS FOR DIFFERENTIATING STEM CELLS” (Massachusetts Institute of Technology, priority 2019, published 2022).
